In publication PMC3443605 (Journal of medicinal chemistry, 2012):
Entries after “also recorded” stand apart in the source; their conditions may differ.

Assays:
[1] = system: wild-type mice; settings: cited from earlier work
[2] = system: β-arrestin-2 knockout mice; settings: cited from earlier work
[3] = system: wild-type mice; settings: cited from earlier work; remark: listed apart in the source
[4] = biological target: D5 receptor (Homo sapiens, UniProt P21918); assay: PDSP radioligand binding assay, D5; settings: Table S1
Chain of D5 receptor (P21918 whole entry): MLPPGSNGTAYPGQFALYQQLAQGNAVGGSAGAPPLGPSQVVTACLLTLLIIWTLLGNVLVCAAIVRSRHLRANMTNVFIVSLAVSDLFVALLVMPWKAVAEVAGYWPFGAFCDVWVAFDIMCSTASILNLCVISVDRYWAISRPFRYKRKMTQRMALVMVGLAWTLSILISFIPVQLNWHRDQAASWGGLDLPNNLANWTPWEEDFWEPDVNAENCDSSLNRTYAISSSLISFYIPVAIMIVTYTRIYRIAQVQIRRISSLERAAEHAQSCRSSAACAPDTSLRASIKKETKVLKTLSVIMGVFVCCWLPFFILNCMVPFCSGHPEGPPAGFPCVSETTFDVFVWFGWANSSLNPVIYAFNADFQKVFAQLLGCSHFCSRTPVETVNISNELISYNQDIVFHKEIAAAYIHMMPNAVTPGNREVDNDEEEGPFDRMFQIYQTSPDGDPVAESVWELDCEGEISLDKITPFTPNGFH

[5] = biological target: D1 receptor (Homo sapiens, UniProt P21728); assay: PDSP radioligand binding assay, D1; settings: Table S1
Chain of D1 receptor (P21728 whole entry): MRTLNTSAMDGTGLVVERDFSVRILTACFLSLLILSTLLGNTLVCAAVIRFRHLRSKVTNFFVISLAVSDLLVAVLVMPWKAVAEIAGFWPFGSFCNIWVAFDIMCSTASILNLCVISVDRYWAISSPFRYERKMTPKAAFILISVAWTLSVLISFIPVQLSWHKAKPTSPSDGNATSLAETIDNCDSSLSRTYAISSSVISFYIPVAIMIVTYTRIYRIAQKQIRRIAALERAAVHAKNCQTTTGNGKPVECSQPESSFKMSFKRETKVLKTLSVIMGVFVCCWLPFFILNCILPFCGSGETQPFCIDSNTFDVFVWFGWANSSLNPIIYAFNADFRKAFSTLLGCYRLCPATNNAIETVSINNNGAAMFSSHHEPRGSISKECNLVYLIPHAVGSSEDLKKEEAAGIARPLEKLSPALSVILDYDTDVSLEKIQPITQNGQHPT

[6] = system: β-arrestin-2 knockout mice; assay: PCP-induced hyperlocomotion in β-arrestin-2 knockout mice; assay type: in vivo, mouse; settings: 2 mg/kg i.p., 30 min before 6 mg/kg PCP i.p.
[7] = system: wild-type mice; assay: PCP-induced hyperlocomotion in wild-type mice; assay type: in vivo, mouse; settings: 2 mg/kg i.p., 30 min before 6 mg/kg PCP i.p.
[8] = biological target: T1, D2L receptors (Homo sapiens, UniProt P14416); assay: cell-based; assay type: cell-based
Target sequence in this assay (P14416 whole entry, added parts left off): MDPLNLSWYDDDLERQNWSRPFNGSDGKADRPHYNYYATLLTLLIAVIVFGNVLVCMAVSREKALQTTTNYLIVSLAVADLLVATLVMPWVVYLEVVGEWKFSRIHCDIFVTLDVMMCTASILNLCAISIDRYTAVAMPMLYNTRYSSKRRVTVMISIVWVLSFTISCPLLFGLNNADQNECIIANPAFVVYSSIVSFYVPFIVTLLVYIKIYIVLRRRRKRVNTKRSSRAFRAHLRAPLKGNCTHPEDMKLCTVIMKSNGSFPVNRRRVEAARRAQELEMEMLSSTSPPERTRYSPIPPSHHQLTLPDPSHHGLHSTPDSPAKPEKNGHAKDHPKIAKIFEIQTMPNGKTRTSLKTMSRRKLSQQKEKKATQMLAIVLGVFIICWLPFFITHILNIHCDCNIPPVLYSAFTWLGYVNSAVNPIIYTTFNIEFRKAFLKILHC
Target sequence in this assay (P32121 whole entry partner): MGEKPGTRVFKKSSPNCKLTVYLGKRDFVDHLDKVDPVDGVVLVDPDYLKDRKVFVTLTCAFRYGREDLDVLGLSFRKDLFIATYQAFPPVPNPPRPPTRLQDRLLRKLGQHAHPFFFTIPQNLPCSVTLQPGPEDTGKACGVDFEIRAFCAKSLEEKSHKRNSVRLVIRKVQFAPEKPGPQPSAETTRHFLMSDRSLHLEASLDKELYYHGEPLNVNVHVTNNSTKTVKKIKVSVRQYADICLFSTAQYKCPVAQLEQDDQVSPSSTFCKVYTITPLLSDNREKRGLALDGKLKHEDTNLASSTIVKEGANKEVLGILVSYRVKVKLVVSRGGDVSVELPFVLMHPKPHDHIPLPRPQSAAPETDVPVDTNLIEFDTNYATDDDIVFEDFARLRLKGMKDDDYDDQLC

[9] = biological target: T1, D2L receptors; assay: D2R radioligand binding assay
Target sequence in this assay (P14416 whole entry): as the sequence (P14416 whole entry, added parts left off) above

[10] = cited from earlier work
[11] = biological target: T2, D4 receptor (Homo sapiens, UniProt P21917); assay: PDSP radioligand binding assay, D4; settings: Table S1
T2 sequence (P21917 1-419): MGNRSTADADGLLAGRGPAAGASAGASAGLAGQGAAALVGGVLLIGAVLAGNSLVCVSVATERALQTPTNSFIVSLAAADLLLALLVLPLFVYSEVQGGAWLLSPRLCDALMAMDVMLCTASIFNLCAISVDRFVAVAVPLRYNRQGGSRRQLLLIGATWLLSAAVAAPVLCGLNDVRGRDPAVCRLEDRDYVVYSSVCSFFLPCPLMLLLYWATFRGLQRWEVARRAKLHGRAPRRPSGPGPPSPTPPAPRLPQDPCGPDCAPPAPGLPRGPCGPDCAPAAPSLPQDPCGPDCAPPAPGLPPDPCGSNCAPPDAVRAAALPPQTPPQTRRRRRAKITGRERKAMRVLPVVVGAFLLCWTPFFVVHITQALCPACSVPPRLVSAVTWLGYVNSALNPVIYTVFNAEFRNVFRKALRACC

[12] = biological target: D3 receptor (Homo sapiens, UniProt P35462); assay: PDSP radioligand binding assay, D3; settings: Table S1
Chain of D3 receptor (P35462 whole entry): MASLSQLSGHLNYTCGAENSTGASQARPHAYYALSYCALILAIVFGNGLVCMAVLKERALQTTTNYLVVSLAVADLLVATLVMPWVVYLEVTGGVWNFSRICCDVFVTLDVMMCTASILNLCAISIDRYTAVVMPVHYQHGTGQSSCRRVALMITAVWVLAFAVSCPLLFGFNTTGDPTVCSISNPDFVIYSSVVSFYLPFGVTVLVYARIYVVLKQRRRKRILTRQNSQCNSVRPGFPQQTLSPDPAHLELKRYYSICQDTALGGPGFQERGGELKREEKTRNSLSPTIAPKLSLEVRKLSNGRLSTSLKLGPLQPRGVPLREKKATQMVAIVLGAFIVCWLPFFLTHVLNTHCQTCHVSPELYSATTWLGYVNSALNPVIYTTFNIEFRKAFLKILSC

SMILES: O=C1CCc2ccc(OCCCCN3CCCN(c4cccc(Cl)c4Cl)CC3)nc2N1 [Compound 44]
- antipsychotic drug-like activities in wild-type mice [1]: robust
- antipsychotic drug-like activities in β-arrestin-2 knockout mice [2]: significantly attenuated or completely abolished
- catalepsy in wild-type mice [3]: did not induce catalepsy

SMILES: O=C1CCc2ccc(OCCCCN3CCCN(c4cccc(Cl)c4Cl)CC3)cc2N1 [Compound 19]
- binding affinity to D5 receptor [4]: low affinities
- binding affinity to D1 receptor [5]: low affinities
- antipsychotic-like activity (PCP-induced hyperlocomotion), β-arrestin-2 knockout mice [6]: neither compound affected; also recorded: completely abolished
- effect on PCP-induced hyperlocomotion, wild-type mice [7]: markedly inhibited

SMILES: Clc1cccc(C2CCN(CCCOc3ccc4scnc4c3)CC2)c1Cl [Compound 36]
- antipsychotic drug-like activities in wild-type mice [1]: robust
- antipsychotic drug-like activities in β-arrestin-2 knockout mice [2]: significantly attenuated or completely abolished
- catalepsy in wild-type mice [3]: did not induce catalepsy

SMILES: CC(C)Oc1ccccc1N1CCN(CCCCOc2ccc3c(c2)NC(=O)CC3)CC1 [Compound 4, 7-(4-(4-(2-Isopropoxyphenyl)piperazin-1-yl)butoxy)-3,4-dihydroquinolin-2(1H)-one]
- potency at activating β-arrestin versus Gi signaling [8]: about 10 fold

SMILES: O=C1CCc2ccc(OC[C@@H]3C[C@H]3CN3CCN(c4cccc(Cl)c4Cl)CC3)cc2N1 (relative stereo) [Compound 24, Trans-7-((2-((4-(2,3-dichlorophenyl)piperazin-1-yl)methyl)cyclopropyl)methoxy)-3,4-dihydroquinolin-2(1H)-one]
- Ki [9]: 235 nM
- EC50 [8]: 1260 nM

SMILES: O=C1CCc2ccc(OCCCCN3CCN(c4cccc(Cl)c4Cl)CC3)cc2N1 [Compound 1, aripiprazole]
- oral bioavailability [10]: high

SMILES: Clc1cccc(C2CCN(CCCCOc3ccc4scnc4c3)CC2)c1Cl [Compound 35, 5-(4-(4-(2,3-Dichlorophenyl)piperidin-1-yl)butoxy)benzo[d]thiazole]
- binding affinity to D5 receptor [4]: low affinities
- binding affinity to D1 receptor [5]: low affinities
- binding affinity to D2 receptor ([9]; Table S1): high affinities
- antipsychotic-like activity (PCP-induced hyperlocomotion), β-arrestin-2 knockout mice [6]: neither compound affected
- binding affinity to D4 receptor [11]: high affinities
- binding affinity to D3 receptor [12]: high affinities
- effect on PCP-induced hyperlocomotion, wild-type mice [7]: significantly reduced
